Assay results from patent US4656190A, “Indene derivatives and their use as PAF-antagonists” (Merck & Co., Inc., priority 1983, dated 1987).
Read-outs that look alike come from different tables or passages of the source.

Key:
[1] = system: PAF-induced cutaneous vascular permeability; test: In vivo assay: inhibition of PAF-induced increase of cutaneous vasopermeability in guinea pigs after oral dosing; settings: guinea pig
Method: The specific PAF-antagonistic activities are further established by in vivo assays following the protocol (modified procedure of Humphrey et al., Lab. Investigation, 46, 422 (1982)) described below:
Protocol for the Evaluation of the Oral Activity of
PAF Antagonists or the Inhibition of PAF-Induced
Increase of Vasopermeability by PAF-Antagonists
I. Animal species: 5 guinea pigs (400-500 g)
(4.) Ground and suspend a PAF antagonist of formula
(I) with intensive sonication in 3 ml of 0.5%
aqueous methylcellulose solution.
(5.) Administer orally to each of the animals T1,
T2, T3 and T4 an appropriate amount (in
terms of mg/kg of bodyweight) of the antagonist
solution from 4), except the control animal
(6.) Forty minutes after the oral administration,
(7.) After 20 minutes or when the anesthetics became
effective, inject intracardially to each animal
and inject intracutaneously, in duplicate 0.1
ml of a PAF solution in Tris-buffer or 0.1 ml
of the Tris-buffer itself (control) according
(9.) Wait for 30 minutes or until the blue color
(13.) In the meantime, extract a 100 μl sample of
(15.) Measure the absorbance of each supernatant from
Palo Alto, CA). Calculate the amount of Evans
blue in each skin sample in terms of the volume
(μl) of the exuded blood plasma according to
the following equation: […]
(16.) Draw a plasma exudation curve
(17.) Calculate the percent inhibition of PAF-induced
cutaneous vascular permeability from measuring
the area under the plasma exudation curve of
the control animal (AC) and that of an
animal treated orally with an antagonist
(AD), for example T1, according to the […]

[2] = biological target: T1, PAF specific receptor binding site on rabbit platelet plasma membranes (Oryctolagus cuniculus, UniProt G1TEI7); test: Inhibition of 3H-PAF binding to rabbit platelet plasma membranes; settings: read-out: % Inhibition of PAF Binding
T1 construct: from tissue; host or cells: rabbit platelets (plasma membrane suspension)
T1 sequence (G1TEI7 1-342): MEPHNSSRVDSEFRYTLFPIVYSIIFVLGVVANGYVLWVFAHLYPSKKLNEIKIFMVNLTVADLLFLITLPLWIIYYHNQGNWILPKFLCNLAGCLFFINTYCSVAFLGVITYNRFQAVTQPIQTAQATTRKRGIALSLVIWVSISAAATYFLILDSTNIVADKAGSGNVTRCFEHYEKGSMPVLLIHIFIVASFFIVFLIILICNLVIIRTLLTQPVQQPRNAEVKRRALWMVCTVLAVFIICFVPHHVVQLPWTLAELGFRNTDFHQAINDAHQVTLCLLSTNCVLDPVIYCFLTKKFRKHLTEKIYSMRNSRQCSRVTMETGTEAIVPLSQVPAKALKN
Method: In vitro, they inhibit PAF-induced functions in both the cellular and tissue levels by disturbing the PAF binding to its specific receptor site. The ability of a compound of formula (I) to inhibit the PAF binding to its specific receptor binding site on rabbit platelet plasma membranes was measured by an assay recently developed by us.
The inhibition of H^3 -PAF binding to the rabbit platelet plasma membrane by a PAF-antagonist of Formula (I) was determined by a method employing isotropic labeling and filtration techniques. Generally, a series of Tris-buffered solutions of the selected antagonist at predetermined concentrations were prepared. Each of these solutions contains 1 pmole of ^3 H-PAF, a known amount of the test antagonist, and a sufficient amount of the pH 7.5 Tris-buffer solution (10 mM Tris, 0.25% bovine serum albumin, and 150 mM NaCl per ml water) to make the final volume of 1 ml. After adding into a set of test tubes each with 100 μg of the platelet plasma membrane suspension (S. B. Hwang, et al., Biochemistry, 22, 4756 (1983)) and one of the Tris-buffer solutions described above, the resulting mixture in each test tube was incubated at 0° C. for about one hour or until the reaction was complete. Two control samples, one of which (C1) contains all the ingredients described above except the antagonist and the other (C2) contains C1 plus a 1000-fold excess of unlabeled PAF, were also prepared and incubated simultaneously with the test samples. After the incubation was completed, the contents of each test tube were filtered under vacuo through a Whatman GF/C fiberglass filter and the residue washed rapidly several times with a total of 20 ml cold (0°-5° C.) Tris-buffer solution. Each washed residue was then suspended in 10 ml scintillation solution (Aquasol 2, New England Nuclear, Connecticut) and the radioactivity was counted in a Packard Tri-Carb 460CD Liquid Scintillation System. Defining the counts from a test sample as "Total binding with antagonist"; the counts from the control sample C1, as "Total binding C1 "; and the counts from the control sample C2 as "non-specific binding C2 ", the percent inhibition of each test antagonist can be determined by the following equation: [formula]

[3] = Table 1, E (trans), dose 0.1 μM
[4] = Table 1, E (trans), dose 0.5 μM

SMILES	% In Vivo Inhibition of PAF Receptor ([1]; 10 mg/kg)	% In Vivo Inhibition of PAF Receptor ([1]; 20 mg/kg)	% In Vivo Inhibition of PAF Receptor ([1]; 30 mg/kg)	inhibition at 0.05 µM [2]	inhibition at 0.1 µM [2]	inhibition at 0.25 µM [2]	inhibition at 0.5 µM [2]	inhibition at 1 µM [2]	inhibition at 2.5 µM [2]	inhibition at 5 µM [2]	inhibition at 0.1 µM [2, 3]	inhibition at 0.5 µM [2, 4]	inhibition at 1 µM ([2]; Table 1, E (trans), dose 1 μM)	inhibition at 5 µM ([2]; Table 1, E (trans), dose 5 μM)	% In Vivo Inhibition of PAF Receptor ([1]; 50 mg/kg)
COCCC1=C(C)/C(=C\c2ccc(S(N)(=O)=O)cc2)c2ccc(OC)cc21 [E CH2CH2OCH3 / SO2NH2 / OCH3, E 1-(4-aminosulfonylphenyl)methylene-5-methoxy-2-methyl-1H-3-indenyl-(2-methoxy)ethane]	28%	60%	67%	20%	40%	58%	76%	80%	100%	100%					
COc1ccc2c(c1)C(CCSC)=C(C)/C2=C\c1ccc(S(N)(=O)=O)cc1 [E CH2CH2SCH3 / SO2NH2 / OCH3, E 1-(4-aminosulfonylphenyl)methylene-5-methoxy-2-methyl-1H-3-indenyl-(2-methylthio)ethane]	30%	46%									34%	78%	100%		
COc1ccc2c(c1)C(CCS(C)(=O)=O)=C(C)/C2=C\c1ccc(S(N)(=O)=O)cc1 [E CH2CH2SO2CH3 / SO2NH2 / OCH3, E 1-(4-aminosulfonylphenyl)methylene-5-methoxy-2-methyl-1H-3-indenyl-(2-methylsulfonyl)ethane]	9%	45%									35%	61%	81%	100%	
COC(=O)CC1=C(C)/C(=C\c2ccc(S(N)(=O)=O)cc2)c2ccc(OC)cc21 [E CH2COOCH3 / SO2NH2 / OCH3, E methyl 1-(4-aminosulfonylphenyl)methylene-5-methoxy-2-methyl-1H-3-indenylacetate]											35%	70%	84%	100%	0%
